Laboratory results as given in ChEMBL document CHEMBL5537181 (J Med Chem, 2024).
Calls of active or inactive are those of the source. The calls are words filed in the database; no cut-off is given here.

Legend:
[1] = molecular target: Neuronal acetylcholine receptor; alpha4/beta2 (Rattus norvegicus) (UniProt P09483+P12390); test: Antagonist activity at rat alpha4beta2 nAChR expressed in acetylcholine-induced Xenopus laevis oocytes assessed as inhibition of acetylcholine-induced current at 100 nM by two electrode voltage-clamp assay; format: cell-based; conditions: Oocyte
[2] = Toxicity in rat assessed as motor impairment at 250 microg/kg,IM administrated for 14 consecutive days by rotarod test; conditions: in vivo, 0.25 mg/kg, dose 250 µg/kg

Q: With `CC[C@H](C)[C@H](NC(=O)[C@H](CCCNC(=N)N)NC(=O)[C@H](CCCNC(=N)N)NC(=O)[C@H](Cc1ccc(O)cc1)NC(=O)[C@H](CCCNC(=N)N)NC(=O)[C@H](CCCNC(=N)N)NC(=O)[C@H](CCCNC(=N)N)NC(=O)[C@H](CCCNC(=N)N)NC(=O)[C@H](CC(=O)O)NC(=O)[C@H](Cc1ccc(O)cc1)NC(=O)[C@@H]1CCCN1C(=O)[C@H](CO)NC(=O)[C@H](CCCNC(=N)N)NC(=O)[C@H](Cc1ccc(O)cc1)NC(=O)[C@H](CCCNC(=N)N)NC(=O)CN)C(=O)N[C@H](C(=O)N[C@@H](CC(=O)O)C(N)=O)[C@@H](C)O` as the molecule, how does the inhibition [1] read?
A: The inhibition was “inactive”.

Q: And the Activity [2]?
A: Its Activity is “Non-Toxic”.
